Values after ≈ are worked out from the molar mass of the structure shown. Read-outs that look alike come from different tables or passages of the source.
Experiments:
[1] = MemTox membrane leakage (AK / α-GST); assay type: cell-based, rat
Protocol: (§1) One test compound (Compound A) was received as dry powder and evaluated for potential cytotoxicity in a battery of in vitro assays. The compound was tested using both rat cardiomyocytes (CM) from rat neonates and a rat hepatoma (H4IIE) cell line. […] The cell supernatant or the cells themselves were harvested for biochemical analysis. General cytotoxicity was evaluated by monitoring membrane integrity, mitochondrial function, cell proliferation, oxidative stress, and apoptosis. In addition, interaction with P-glycoprotein (PgP) on H4IIE cells and solubility of the test compound were also assessed. The means of each exposure group (n=3-7) were calculated for each assay performed.
Membrane Leakage (α-Glutathione S-transferase and/or Adenylate Kinase): The presence of Adenylate Kinase (AK) or α-Glutathione S-transferase (α-GST), both enzyme leakage markers, was measured in the culture medium using an activity assay for Adenylate Kinase and/or an ELISA assay for α-GST. At the end of the exposure period, the medium covering the cells in each well was removed and placed into new 96-well plates with appropriate labeling. […] Luminescence (AK) values were measured with a Packard Fusion or equivalent plate reader, and absorbance (α-GST) values were measured with a Packard SpectraCount™ or equivalent reader at 450 nm and reference absorbance at 650 nm.
Membrane Leakage (α-Glutathione S-transferase and/or Adenylate Kinase): Leakage of Adenylate Kinase or α-GST from the cell into the culture medium was determined by collecting the culture medium at the end of the exposure period. Thus, the values measured represent total enzyme leakage lost over the exposure period. The control for 100% dead or maximum enzyme release was based on cells treated with 1 mM digitonin at the time of dosing. Percent dead cells relative to digitonin treated cells was determined and then subtracted from 100% to yield the percent live cells.

[2] = MTT reduction; assay type: cell-based, rat
Protocol: as §1
(§2) Tetrazolium Dye Reduction: 3-[4,5-dimethylthiazol-2-yl]

[3] = test system: P-glycoprotein (PgP); experiment: P-glycoprotein (PgP) binding: MTT with and without cyclosporin A; assay type: cell-based, rat; settings: for % Difference: 1-20% low, 20-50% moderate, 50-100% high PgP interaction
Protocol: Several antiviral drugs are substrates for P-glycoprotein transporter (PgP).
P-glycoprotein (PgP) transport proteins are expressed in the bile canalicular membrane of normal liver. However, in neoplastic cells it is not uncommon to have expression of this transporter system in the plasma membrane. […] The existence of these transporters was evaluated with the Calcein-AM assay and with known substrates of PgP.

[4] = Intracellular ATP levels; assay type: cell-based, rat
Protocol: as §1
Intracellular ATP Levels: Cellular Adenosine triphosphate (ATP) was determined with an assay based on a reaction between ATP+D-luciferin+oxygen catalyzed by luciferase to yield Oxyluciferin+AMP+PPi+CO2+light. The emitted light is proportional to the amount of ATP present. […] In addition, a unique cell lysis reagent inhibits endogenous ATPases and therefore stabilizes cellular ATP by preventing its degradation to ADP. ATP is present in all-living cells and declines rapidly upon cell death. In addition, this assay in combination with the MTT assay provides an indicator of mitochondrial activity and energy status of the cell.
Plates were analyzed immediately or stored at −20° C. until needed. On the day of analysis, the plates were thawed and calibration curve prepared with ATP in the same liquid matrix as samples. ATP was quantified by adding ATP substrate solution and then reading luminescence on a Packard Fusion Luminescence or equivalent plate reader.
Intracellular ATP Levels: ATP levels in treated cells could be determined by using the regression coefficients obtained from the linear regression analysis of the calibration curve. Thus, values could be expressed as pmoles ATP/million cells. Background corrected luminescence was used to determine percent change relative to controls by dividing treated values by control values and multiplying by 100.

[5] = MTT reduction; assay type: cell-based, rat; settings: rat
Protocol: as §1
(§3) Experimental Protocol: The test compound was provided and stored at 4° C. until needed. Dosing solutions were prepared in complete culture medium. The rat hepatoma (H4IIE) cell line was used as the test system.
as §2

[6] = Intracellular total glutathione (GSH); assay type: cell-based, rat; settings: rat
Protocol: as §1, §3

[7] = Cell number (propidium iodide); assay type: cell-based, rat; settings: rat
Protocol: as §1, §3
Cell Proliferation: Cell proliferation in each well was measured with propidium iodide (PI). This specific nucleic acid binding dye fluoresces when intercalated within the nucleic acids. The 15 nm shift enhances PI fluorescence approximately 20 times while the excitation maxima are shifted 30-40 nm. During method development experiments, it was determined that Triton-X-100 was the best solution to permeabilize the H4IIE cells thereby allowing the PI access to intracellular RNA and DNA. Fluorescence was measured using a Packard Fusion plate reader or equivalent reader at 540 nm excitation and 610 nm emission.
Cell Proliferation: After incubation, the test compound was removed and Triton X-100 solution containing propidium iodide is added. The plate was incubated and read on a fluorescent plate reader. Data was collected as relative fluorescent units (RFU). The blank was subtracted from the final well RFU. It represents the average of the first and last columns which contain no cells on that particular plate. The controls are untreated cells allowed to grow on the same plate. The compounds are represented by several separate RFU data points for each of the tested concentrations. The percent change relative to controls was calculated by dividing the average RFU by the control cell RFU and multiplying by 100.

[8] = Solubility in culture medium (nephelometry); assay type: physicochemical
Protocol: Solubility: The test compounds were prepared in DMSO and the appropriate amounts were then added to complete medium containing 10% bovine serum […] at 37° C. The samples were evaluated using a light scattering technique and a Nephaloskan instrument.
Solubility Assay: The test compounds were prepared in DMSO and the appropriate amounts were then added to complete medium containing 10% bovine serum at 37° C. The samples were evaluated using a light scattering technique and a Nephaloskan instrument.

[9] = H4IIE 24 HR, MTT, 50 μM, with cyclosporin A
[10] = H4IIE 24 HR, MTT, 50 μM, without CSA
[11] = dosing medium with 20% serum, 37° C., CM 24 HR, read-out: Highest Soluble Concentration Tested
[12] = dosing medium with 20% serum, 37° C., H4IIE 24 HR, read-out: Highest Soluble Concentration Tested
[13] = 37 °C, plasma or biological fluid, kinetic from dmso stock, dosing medium with 20% serum, 37° C., H4IIE 24 HR, read-out: Highest Soluble Concentration Tested
[14] = dosing (complete culture) medium with 20% serum, plasma or biological fluid, kinetic from dmso stock, dosing medium with 20% serum, 37° C., CM 24 HR, read-out: Highest Soluble Concentration Tested

| solubility [8, 11] | solubility [8, 12] | Compound | CC50 at 24 h ([1]; rat) | CC50 at 24 h ([2]; rat) | % Control (Compound + CSA) [3, 9] | % Control (Compound) [3, 10] | CC50 at 24 h ([4]; rat) | CC50 at 24 h ([5]; MTT TC50) | CC50 at 24 h ([6]; Total GSH TC50) | CC50 at 24 h ([7]; Cell Number TC50) | % Difference ([3]; H4IIE 24 HR) | also measured |
| --- | --- | --- | --- | --- | --- | --- | --- | --- | --- | --- | --- | --- |
| 300 µM (≈ 85.9 µg/mL) | 300 µM (≈ 85.9 µg/mL) | Nc1nc(NC2CC2)c2ncn([C@H]3C=C[C@@H](CO)C3)c2n1 [ABACAVIR, abacavir] | > 300 µM | > 300 µM | 104.8% | 97.6% | 165 µM | > 300 µM | 213 µM | > 300 µM | – | – |
| 300 µM (≈ 137 µg/mL) | 300 µM (≈ 137 µg/mL) | CC(C)Nc1cccnc1N1CCN(C(=O)c2cc3cc(NS(C)(=O)=O)ccc3[nH]2)CC1 [DELAVIRDINE, delavirdine] | 239 µM | 252 µM | 62.3% | 89.8% | 166 µM | 218 µM | 96 µM | > 300 µM | 30.7% | – |
| 300 µM (≈ 94.7 µg/mL) | 300 µM (≈ 94.7 µg/mL) | O=C1Nc2ccc(Cl)cc2[C@@](C#CC2CC2)(C(F)(F)F)O1 [EFAVIRENZ, efavirenz] | 69 µM | 79 µM | 70.1% | 89.0% | 75 µM | 161 µM | 170 µM | 169 µM | 21.3% | – |

Continued, compound first:

| Compound | solubility [8, 11] | solubility [8, 12] | CC50 at 24 h ([1]; rat) | CC50 at 24 h ([2]; rat) | % Control (Compound + CSA) [3, 9] | % Control (Compound) [3, 10] | CC50 at 24 h ([4]; rat) | CC50 at 24 h ([5]; MTT TC50) | CC50 at 24 h ([6]; Total GSH TC50) | CC50 at 24 h ([7]; Cell Number TC50) | % Difference ([3]; H4IIE 24 HR) | also measured |
| --- | --- | --- | --- | --- | --- | --- | --- | --- | --- | --- | --- | --- |
| COc1cccc2c1C(=O)c1c(O)c3c(c(O)c1C2=O)C[C@@](O)(C(=O)CO)C[C@@H]3O[C@H]1C[C@H](N)[C@H](O)[C@H](C)O1 [ADRIAMYCIN, Adriamycin] | – | – | 7 µM | 1 µM | 0.0% | 8.0% | 6 µM | 13 µM | 28 µM | 18 µM | 76.9% | CC50 at 1 h ([1]; rat): > 300 µM; CC50 at 3 h ([1]; rat): > 300 µM; CC50 at 6 h ([1]; rat): 40 µM; CC50 at 1 h ([2]; rat): > 300 µM; CC50 at 3 h ([2]; rat): 41 µM; CC50 at 6 h ([2]; rat): 18 µM; % Control (Compound + CSA) ([3]; H4IIE 24 HR, MTT, 50 μM, with cyclosporin A, listed as DOXORUBICIN): 13.7%; % Control (Compound) ([3]; H4IIE 24 HR, MTT, 50 μM, without CSA, listed as DOXORUBICIN): 59.3%; CC50 at 1 h ([4]; rat): > 300 µM; CC50 at 3 h ([4]; rat): 62 µM; CC50 at 6 h ([4]; rat): 29 µM; solubility ([8]; 37 °C, plasma or biological fluid, kinetic from dmso stock, dosing medium with 20% serum, 37° C., CM 1 HR, read-out: Highest Soluble Concentration Tested): 100 µM (≈ 54.4 µg/mL); solubility ([8]; 37 °C, plasma or biological fluid, kinetic from dmso stock, dosing medium with 20% serum, 37° C., CM 3 HR, read-out: Highest Soluble Concentration Tested): 100 µM (≈ 54.4 µg/mL); solubility ([8]; 37 °C, plasma or biological fluid, kinetic from dmso stock, dosing medium with 20% serum, 37° C., CM 6 HR, read-out: Highest Soluble Concentration Tested): 100 µM (≈ 54.4 µg/mL); solubility ([8]; 37 °C, plasma or biological fluid, kinetic from dmso stock, dosing medium with 20% serum, 37° C., CM 24 HR, read-out: Highest Soluble Concentration Tested): 100 µM (≈ 54.4 µg/mL); solubility [8, 13]: 100 µM (≈ 54.4 µg/mL); solubility ([8]; dosing medium with 20% serum, 37° C., H4IIE 24 HR, listed as DOXORUBICIN, read-out: Highest Soluble Concentration Tested): 300 µM (≈ 163 µg/mL) |
| CC[C@@]1(O)C(=O)OCc2c1cc1n(c2=O)Cc2cc3ccccc3nc2-1 [CAMPTOTHECIN, Camptothecin] | – | – | – | – | 26.0% | 23.6% | – | – | – | – | – | CC50 at 24 h ([1]; neonatal rat cardiomyocytes, rat cardiomyocytes (CM), 24 HR exposure, read-out: MemTox TC50): > 300 µM; CC50 at 24 h ([2]; neonatal rat cardiomyocytes, rat cardiomyocytes (CM), 24 HR exposure, read-out: MTT TC50): > 300 µM; CC50 at 24 h ([4]; neonatal rat cardiomyocytes, rat cardiomyocytes (CM), 24 HR exposure, read-out: ATP TC50): > 300 µM; CC50 at 24 h ([5]; H4IIE rat hepatoma cells, H4IIE, 24 HR exposure, read-out: MTT TC50): 1 µM; CC50 at 24 h ([6]; H4IIE rat hepatoma cells, H4IIE, 24 HR, read-out: Total GSH TC50): 3 µM; CC50 at 24 h ([7]; H4IIE rat hepatoma cells, H4IIE, 24 HR exposure, read-out: Cell Number TC50): 4 µM; solubility ([8]; culture medium with 20% serum, 37 °C, plasma or biological fluid, kinetic from dmso stock, culture media containing 20% serum, NRK 6 HR, read-out: Highest Soluble Concentration): 50 µM (≈ 17.4 µg/mL); solubility [8, 14]: 10 µM (≈ 3.48 µg/mL); solubility ([8]; dosing medium (complete culture medium with serum), plasma or biological fluid, kinetic from dmso stock, dosing medium, 37° C., SK-MEL28 24 HR, read-out: Highest Soluble Concentration): 10 µM (≈ 3.48 µg/mL); solubility ([8]; plasma or biological fluid, kinetic from dmso stock, dosing medium, 37° C., HUVEC 24 HR, read-out: Highest Soluble Concentration): 10 µM (≈ 3.48 µg/mL) |
| COc1cccc2c1C(=O)c1c(O)c3c(c(O)c1C2=O)C[C@@](O)(C(C)=O)C[C@@H]3O[C@H]1C[C@H](N)[C@H](O)[C@H](C)O1 [DAUNORUBICIN, daunorubicin] | – | – | 4 µM | 6 µM | – | – | 9 µM | – | – | – | – | % Control (Compound + CSA) [3]: 5.5%; % Control (Compound) [3]: 9.3%; CC50 at 24 h [5]: 14 µM; CC50 at 24 h [6]: 16 µM; CC50 at 24 h [7]: 8 µM; solubility ([8]; plasma or biological fluid, kinetic from dmso stock, dosing medium with 20% serum, 37° C., CM 24 HR, read-out: Highest Soluble Concentration Tested): 100 µM (≈ 52.8 µg/mL) |
| COc1cccc2c1C(=O)c1c(O)c3c(c(O)c1C2=O)C[C@@](O)(C(=O)CO)C[C@@H]3O[C@H]1C[C@H](N)[C@@H](O)[C@H](C)O1 [EPIRUBICIN, epirubicin] | 300 µM (≈ 163 µg/mL) | – | 35 µM | 16 µM | 11.8% | 59.7% | 19 µM | 81 µM | 52 µM | 31 µM | 80.3% | solubility [8, 13]: 100 µM (≈ 54.4 µg/mL) |
| CC(=O)[C@]1(O)Cc2c(O)c3c(c(O)c2[C@@H](O[C@H]2C[C@H](N)[C@H](O)[C@H](C)O2)C1)C(=O)c1ccccc1C3=O [IDARUBICIN, idarubicin] | – | – | < 1 µM | < 1 µM | 0.0% | 0.8% | 2 µM | 3 µM | 4 µM | 4 µM | – | solubility [8, 14]: 20 µM (≈ 9.95 µg/mL) |
